In ChEMBL document CHEMBL1201862, “PubChem BioAssay data set” (2004):
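48-hour exposure; five concentrations; linearly interpolated endpoints. Abbreviation: GI50, concentration required for 50% inhibition of growth.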 Activity calls are given as the source filed them. No stated cut-off is given here; in the data, active = GI50 up to about 1.1 µM and inactive = higher.

What was measured:
Assay in all cases: NCI anticancer screen, dose series, 48 h
[1] = tested on: A549
[2] = tested on: ACHN
[3] = tested on: COLO 205
[4] = tested on: EKVX
[5] = tested on: HOP-62
[6] = tested on: HT-29
[7] = tested on: IGROV-1
[8] = tested on: M14
[9] = tested on: MCF7
[10] = tested on: MDA-MB-435
[11] = tested on: Malme-3M
[12] = tested on: NCI-H522
[13] = tested on: OVCAR-4
[14] = tested on: OVCAR-8
[15] = tested on: SF-295
[16] = tested on: SF-539
[17] = tested on: SNB-75
[18] = tested on: SR
[19] = tested on: T47D
[20] = tested on: UACC-62

Measured: GI50

CC(C)NC(=O)OCc1c(COC(=O)NC(C)C)n(C)c2c1ccc1cc(Cl)c(Cl)cc12
inactive: [1] 19.5 µM | [2] 11.7 µM | [3] 10.9 µM | [4] 14.8 µM | [5] 14.7 µM | [6] 15.9 µM | [7] 10.5 µM | [8] 15.5 µM | [9] 3.28 µM | [10] 6.43 µM | [11] 10.8 µM | [12] 1.49 µM | [13] 20.1 µM | [14] 11.6 µM | [15] 16.6 µM | [16] 13.5 µM | [17] 13.4 µM | [18] 2.64 µM | [19] 5.82 µM | [20] 12 µM

COc1cccc2c1C(=O)c1ccc3cc(CO)cc(O)c3c1C2=O
inactive: [3] 1.53 µM | [4] 1.87 µM | [5] 2.09 µM | [7] 1.38 µM | [15] 3.03 µM | [17] 4.29 µM | [19] 1.72 µM
active: [1] 0.624 µM | [2] 0.509 µM | [6] 0.813 µM | [8] 0.245 µM | [9] 0.41 µM | [10] 0.201 µM | [11] 0.046 µM | [12] 0.865 µM | [13] 0.652 µM | [14] 0.231 µM | [16] 0.329 µM | [18] 0.267 µM | [20] 0.279 µM

Cc1cc(Cl)ccc1OCC(=O)Nc1nc(N)nc(N)n1
inactive: [1] > 100 µM | [2] > 100 µM | [3] > 100 µM | [4] > 100 µM | [5] > 100 µM | [6] > 100 µM | [7] > 100 µM | [8] > 100 µM | [9] > 100 µM | [10] > 100 µM | [11] > 100 µM | [12] > 100 µM | [13] > 100 µM | [14] > 100 µM | [15] > 100 µM | [16] > 100 µM | [17] > 100 µM | [18] > 100 µM | [19] > 100 µM | [20] > 100 µM

C=CCn1c(-c2ccc(-c3cs/c(=N\N=O)n3CC=C)cc2)cs/c1=N\N=O
inactive: [1] > 100 µM | [2] > 100 µM | [3] > 100 µM | [4] > 100 µM | [5] 64.3 µM | [6] > 100 µM | [7] > 100 µM | [8] > 100 µM | [9] > 100 µM | [10] > 100 µM | [11] > 100 µM | [12] 83.2 µM | [13] 22.2 µM | [14] 88.1 µM | [15] 91 µM | [16] 94.4 µM | [17] 20.9 µM | [18] > 100 µM | [19] > 100 µM | [20] > 100 µM

c1ccc2c(c1)CCN1CCc3ccccc3C1C2 (stereo not given)
inactive: [1] 35.8 µM | [2] 77.6 µM | [3] 38 µM | [4] 40.4 µM | [5] 56.2 µM | [6] 28.2 µM | [7] 48 µM | [8] 23.1 µM | [9] > 100 µM | [10] 33 µM | [11] > 100 µM | [12] 51.9 µM | [13] > 100 µM | [14] 81.1 µM | [15] 26.9 µM | [16] 20.5 µM | [17] 36.4 µM | [18] 47.8 µM | [19] > 100 µM | [20] 29.7 µM

C=C1CC2(CC(c3ccccc3Cl)OC(c3ccccc3Cl)C2)OC1=O (stereo not given)
inactive: [1] 7.74 µM | [2] 4.51 µM | [3] 2.31 µM | [4] 8.34 µM | [5] 8.05 µM | [6] 2.55 µM | [7] 2.02 µM | [8] 1.71 µM | [9] 2.11 µM | [10] 1.8 µM | [11] 3.57 µM | [12] 1.72 µM | [13] 3.9 µM | [14] 2.11 µM | [15] 8.97 µM | [16] 1.96 µM | [17] 3.17 µM | [18] 2.52 µM | [19] 1.68 µM | [20] 1.94 µM

CN(CCCCN1CCCC1)CCCCN(C)C(=O)Cc1ccc(Cl)c(Cl)c1
inactive: [1] 14.4 µM | [2] 20.7 µM | [3] 7.8 µM | [4] 20.5 µM | [5] 16.3 µM | [6] 3.85 µM | [7] 18.2 µM | [8] 17.2 µM | [9] 14 µM | [10] 2.26 µM | [11] 17.9 µM | [12] 11.5 µM | [13] 17.6 µM | [14] 21.3 µM | [15] 19.5 µM | [16] 9.29 µM | [17] 15 µM | [18] 2.59 µM | [19] 20.2 µM | [20] 3.66 µM
